Tests used:
Huh7.5 cells = test: "Total lipid" fatty acid profiling (GCMS) of hepatoma cells treated with iminosugars; assay type: cell-based, human; settings: uninfected state, antiviral concentrations, 4 days
Procedure: Methods for cell culture of replication-competent HCV in human hepatoma cells were essentially as described (Pollock, Nichita et al. 2010). Huh7.5 cells (Apath, LLC) were grown in DMEM supplemented with 100 U/ml penicillin, 100 μg/ml streptomycin, 2 mM L-glutamine, 1×MEM, and 10% FBS. All incubations were at 37° C./5% CO2. The effect of iminosugar treatment on cellular lipid profiles was determined for both uninfected and HCVcc-infected cells. In order to infect cells with HCV strain Jc1 (genotype 2a), Huh7.5 cells were incubated for 1 h in the presence of the virus at a multiplicity of infection (MOI)=0.02 using a viral stock of known titer. Cells were passaged for approximately 2 weeks to allow the infection to reach close to 100% of cells as determined by HCV core protein immunofluorescence, in order to avoid dilution of ‘infected’ lipidomic signatures by uninfected cells in partially infected cultures. Both HCV-infected and uninfected cells were then incubated in the presence or absence of iminosugars for 4 days, at which point they were harvested using trypsin/EDTA, washed 3 times in cold PBS, counted using trypan blue staining, and final cell pellets were resuspended in methanol:acetone (vol 1:1) prior to lipid profiling, A small volume of each sample was used for total protein estimation using the Bradford protein assay (Bio-Rad). […]

obese mice = settings: cited from earlier work
ER alpha glucosidases = settings: cited from earlier work
PI3 kinase = settings: cited from earlier work

OC[C@@H]1[C@@H](O)[C@H](O)[C@@H](O)CN1CCCCCOCC12CC3CC(CC(C3)C1)C2 [AMP-DNJ, N-(5-adamantane-1-yl-methoxy-pentyl)-deoxynojirimycin]
Mead acid component of the global fatty acid composition (Huh7.5 cells): almost doubled | fatty acid synthase activity (obese mice): decreases fatty acid synthase activity | hepatic insulin sensitivity (obese mice): improves hepatic insulin sensitivity | hepatic steatosis (obese mice): abolishes hepatic steatosis

CCCCN1C[C@H](O)[C@@H](O)[C@@H](O)[C@H]1CO [NB-DGJ, N—(N-butyl) deoxygalactojirimycin]
inhibitory activity towards ER alpha glucosidases (ER alpha glucosidases): no inhibitory activity

CCCCN1C[C@H](O)[C@@H](O)[C@H](O)[C@H]1CO [NB-DNJ, N-butyl-deoxynojirimycin]
inhibitory activity towards ER alpha glucosidases (ER alpha glucosidases): also inhibits glucosidase

CCCCC/C=C\C/C=C\C/C=C\C/C=C\CCCC(=O)O [arachidonic acid]
activation of PI3 kinase by insulin (PI3 kinase): blocks the activation
